Data published in patent US20150164946A1, “Thrush Treatment Paste” (priority 2013, published 2015).

Conditions: copper sulfate concentration up to 70% (weight percent) in the composition, applied to horse hoofs

O=S(=O)([O-])[O-].[Cu+2] [copper sulfate]
harmfulness in this usage (topical hoof thrush treatment): not be harmful
